In US5141925A, “Vivo methods for treating coccidiosis” (Trustees of Tufts College, priority 1990, dated 1992):

Legend:
E. tenella lectin = test: Hemagglutination inhibition assay, lectin of E. tenella sporozoite lysate (rabbit erythrocytes); format: biochemical, Eimeria tenella; conditions: minimum concentration inhibiting 4 hemagglutination units of lectin; 2% rabbit erythrocytes, room temperature, 60 minutes
Text: (§1) The lectin activity is preferably determined by a hemagglutination assay of rabbit erythrocytes. It is desirably performed in "U" well microtiter plates using lysates prepared from the parasites of interest. The sporozoites of the parasite of interest are washed three times in phosphate buffered saline (PBS), and adjusted to a concentration of 1×10^7 /ml. They are lysed by sonication in "Branson" sonicator; cleared of particulate material by filtration; and assayed for lectin activity using a conventionally known hemagglutination assay. In this assay, 2% rabbit erythrocytes in PBS are added to serial doubling dilutions of the prepared test lysate in PBS containing 2 mg/ml of bovine serum albumin (BSA) and incubated at 23° C. (i.e., room temperature) for 1 hour. Lectin titer is defined as the reciprocal of the highest agglutinating dilution as determined by direct observation, which is defined as one agglutinating unit.
(§2) Sugar specificity and characterization is determined by a standard hemagglutination inhibition assay. 2% rabbit erythrocytes are added to serial doubling dilutions of the sugar-comprising test compound in PBS containing 2 mg/ml BSA and 4 hemagglutination units of lectins; followed by incubation at room temperature for 60 minutes. The minimum inhibitory concentration of the test compound is defined as the minimum concentration which is required for inhibiting 4 hemagglutination units of lectins. The following represent examples of suitable test compounds: (1) glycoproteins such as fetuine, bovine submaxillary mucin, hog gastric mucin, and -1- acid glycoprotein; (2) monosaccharides such as arabinose, fucose, glucose, galactose, mannose, N-acetylglucosamine, and N-acetylgalactosamine and their derivatives; and (3) oligosaccharides including chitobiose and chitotetrose.

E. acervulina lectin = test: Hemagglutination inhibition assay, lectin of E. acervulina sporozoite lysate (rabbit erythrocytes); format: biochemical, Eimeria acervulina; conditions: minimum concentration inhibiting 4 hemagglutination units of lectin; 2% rabbit erythrocytes, room temperature, 60 minutes
Text: as §1, §2

[1] = tested on: embryonic chick kidney cells; test: 3H uracil counts of host cells with fetuin, no parasite; format: cell-based; conditions: Host Cells + 15 mg/ml Fetuin, mean of eight cultures
Protocol: (§3) The sporozoites are then pretreated for one hour in cell culture nutrient (Waymouth's MAB 87/3, without serum) containing various concentration of inhibiting sugars, such as 0.1, 1.0, and 10.0 mg/ml fetuine, before being inoculated onto 24-48 hour primary cultures of embryonic chick kidney cells prepared in 24 or 96 well plates. Treatment with the inhibiting sugar, such as fetuine, is continuous at the tested concentration during the incubation period, allowing the parasite development to proceed for 48 or 96 hours. Nutrient is changed every 48 hours. Because parasites developing in cell culture, but not the host cells, take up ^3 H uracil, add 2 u Ci to each well in a 96 well plate 18 to 24 hours beore counting by liquid scintillation. Nutrient is removed from the parasitized cell cultures which are then treated with PBS solution, pH 7.6-7.8, containing 0.5% trypsin and 0.022% EDTA to detach the cells from the culture vessel, and harvested with a PHD Cell Harvester (Cambridge Instrument) onto glass fiber filter discs. Individual discs are placed into scintillation vials with 3.5 ml Toluene (plus 5.262 grams per 4 liters of PPO [2,5-diphenyloxazole]) and samples are then counted in a Beckman scintillation counter.

E. tenella = test: Inhibition of E. tenella development in cell culture (3H uracil uptake, Schmatz et al.); format: cell-based, Eimeria tenella; conditions: for Scintillation Counts (24 hr), Trial 1 / Scintillation Counts (24 hr), Trial 2: 96 hours development, mean of eight cultures
Protocol: A series of experimental assays were performed to measure the in vitro inhibition of Coccidia infections by compositions comprising at least one sugar. The inhibition assay is one developed by Schmatz et al. [J. Protozology 33:109-114 (1986)] in which inhibition of sporozoite development is correlated with a decrease in ^3 H uracil uptake by the host cells.
Sporozoites are excysted aseptically from sterile coccidis oocysts, cleaned of debris by passage through a cellulose or glass wool column, counted, and diluted to a concentration of approximately 2.5×10^5 sporozoites per ml.
as §3

E. maxima lectin = test: Hemagglutination inhibition assay, lectin of E. maxima sporozoite lysate (rabbit erythrocytes); format: biochemical, Eimeria maxima; conditions: minimum concentration inhibiting 4 hemagglutination units of lectin; 2% rabbit erythrocytes, room temperature, 60 minutes
Text: as §1
Sugar specificity and characterization is determined by a standard hemagglutination inhibition assay. 2% rabbit erythrocytes are added to serial doubling dilutions of the sugar-comprising test compound in PBS containing 2 mg/ml BSA and 4 hemagglutination units of lectins; followed by incubation at room temperature for 60 minutes. […]

[2] = Host Cells + Parasite + 5 mg/ml Fetuin
[3] = Host Cells + Parasite + 10 mg/ml Fetuin
[4] = Host Cells + Parasite + 15 mg/ml Fetuin

## C[C@@H]1OC(O)[C@@H](O)[C@H](O)[C@@H]1O (single isomer, unassigned) [L(-)-Fucose]
E. tenella lectin
  Lowest Concentration that Inhibited Lectin Agglutination, E. tenella: 1.25 mg/mL

## COC1O[C@H](CO)[C@@H](O)[C@H](O)[C@H]1O (stereo partly drawn) [1-o-CH3 -D-Glucoside]
E. tenella lectin
  Lowest Concentration that Inhibited Lectin Agglutination, E. tenella: 4.1 mg/mL

## O=C[C@@H](O)[C@H](O)[C@H](O)CO [Arabinose]
E. acervulina lectin
  Lowest Concentration that Inhibited Lectin Agglutination, E. acervulina: 25.0 mg/mL

## CC(=O)N[C@H]1[C@H](O[C@H]2[C@H](O)[C@@H](NC(C)=O)C(O)O[C@@H]2CO)O[C@H](CO)[C@@H](O[C@@H]2O[C@H](CO)[C@@H](O[C@@H]3O[C@H](CO)[C@@H](O)[C@H](O)[C@H]3NC(C)=O)[C@H](O)[C@H]2NC(C)=O)[C@@H]1O (stereo partly drawn) [Chitotetrose]
E. tenella lectin
  Lowest Concentration that Inhibited Lectin Agglutination, E. tenella: 0.03 mg/mL

## O=[N+]([O-])c1ccc(OC2O[C@H](CO)[C@@H](O)[C@H](O)[C@H]2O)cc1 (stereo partly drawn) [P-Nitro-o-D-Glucoside]
E. tenella lectin
  Lowest Concentration that Inhibited Lectin Agglutination, E. tenella: 12.5 mg/mL

## Acid Glycoprotein
E. tenella lectin
  Lowest Concentration that Inhibited Lectin Agglutination, E. tenella: 1.25 mg/mL
E. acervulina lectin
  Lowest Concentration that Inhibited Lectin Agglutination, E. acervulina: 0.5 mg/mL

## Bovine Submaxillary Mucin [Bovine Submaxillary Mucin (BSM)]
E. tenella lectin
  Lowest Concentration that Inhibited Lectin Agglutination, E. tenella: 0.083 mg/mL
E. acervulina lectin
  Lowest Concentration that Inhibited Lectin Agglutination, E. acervulina: 0.03 mg/mL

## Chitobiose
E. tenella lectin
  Lowest Concentration that Inhibited Lectin Agglutination, E. tenella: 1.25 mg/mL

## Hog Gastric Mucin
E. tenella lectin
  Lowest Concentration that Inhibited Lectin Agglutination, E. tenella: 0.125 mg/mL
E. acervulina lectin
  Lowest Concentration that Inhibited Lectin Agglutination, E. acervulina: 0.5 mg/mL

B1: Fetuin (protein, UniProt P12763 19-359, looked up)
Alpha-2-HS-glycoprotein: IPLDPVAGYKEPACDDPDTEQAALAAVDYINKHLPRGYKHTLNQIDSVKVWPRRPTGEVYDIEIDTLETTCHVLDPTPLANCSVRQQTQHAVEGDCDIHVLKQDGQFSVLFTKCDSSPDSAEDVRKLCPDCPLLAPLNDSRVVHAVEVALATFNAESNGSYLQLVEISRAQFVPLPVSVSVEFAVAATDCIAKEVVDPTKCNLLAEKQYGFCKGSVIQKALGGEDVRVTCTLFQTQPVIPQPQPDGAEAEAPSAVPDAAGPTPSAAGPPVASVVVGPSVVAVPLPLHRAHYDLRHTFSGVASVESSSGEAFHVGKTPIVGQPSIPGGPVRLCPGRIRYFKI
notes: glycoprotein
E. tenella lectin
  Lowest Concentration that Inhibited Lectin Agglutination, E. tenella: 0.078 mg/mL
[1]
  Scintillation Counts (24 hr), Trial 1: 7,826.4
  Scintillation Counts (24 hr), Trial 2: 1,942.7
E. tenella; [2]
  Scintillation Counts (24 hr), Trial 1: 8,135.0
  Scintillation Counts (24 hr), Trial 2: 1,394.7
E. tenella; [3]
  Scintillation Counts (24 hr), Trial 1: 8,625.6
  Scintillation Counts (24 hr), Trial 2: 1,556.4
E. tenella; [4]
  Scintillation Counts (24 hr), Trial 1: 4,328.3
  Scintillation Counts (24 hr), Trial 2: 796.1
E. tenella; summary of Table E2
  3H uracil uptake, inhibition of E. tennella development (in words): substantial reductions
E. acervulina lectin
  Lowest Concentration that Inhibited Lectin Agglutination, E. acervulina: 0.13 mg/mL
E. maxima lectin
  Lowest Concentration that Inhibited Lectin Agglutination, E. maxima: 0.4 mg/mL
